Laboratory results: patent US20130331368A1, “METHOD OF TREATING HEPATOCELLULAR CARCINOMA” (Niiki Pharma Acquisition Corp. 2, priority 2011, published 2013)
Converted amounts (≈) assume the structure as drawn. Like-named read-outs stand apart in the source and are kept apart here.

Key:
Hep3B [1] = conditions: from Kogure et al. 2004; cited from earlier work
HepG2 [2] = conditions: from Kogure et al. 2004; cited from earlier work
HepG2 [3] = test: Literature IC50 in HepG2 (Kogure et al.); type: cell-based, human; conditions: ratio of literature IC50 values (Kogure et al.)
Method: In addition, the IC50 values of 5-FU and cisplatin in the Hep3B and HepG2 cell lines were obtained from Kogure et al., Cancer Chemother. Pharmacol., 53(4):296-304 (2004). The ratios of IC50 values of sodium trans-[tetrachlorobis(1H-indazole)ruthenate(III)] in a cell line sensitive to one of the other drugs and a cell line insensitive to the same drug were calculated. The results are shown in Tables 1-5 below (“Test Drug” in the tables denotes sodium trans-[tetrachlorobis(1H-indazole)ruthenate(III)]). […] As such, sodium trans-[tetrachlorobis(1H-indazole)ruthenate(III)] is potentially effective in treating hepatocellular carcinoma resistant to such other drugs.

Hep3B [4] = test: MTT cytotoxicity assay, Hep3B cell line; type: cell-based, human
Method: (§1) To test the activities of sodium trans-[tetrachlorobis(1H-indazole)ruthenate(III)] (“drug”), MTT assays were performed using selected hepatocellular carcinoma cell lines. Cells were plated (2×10^3 cells in 100 μl/well) in 96-well plates and allowed to recover for 24 hours. The drug was added in another 100 μl growth medium and incubated with cultured cells for 3 hours before the cell culture medium was replaced to remove the drug. Cell death was measured 72 hours after the initial incubation by MTT assay following the manufacturer's recommendations (EZ4U, Biomedica, Vienna, Austria).
(§2) In addition, the IC50 values of 5-FU and cisplatin in the Hep3B and HepG2 cell lines were obtained from Kogure et al., Cancer Chemother. Pharmacol., 53(4):296-304 (2004). The ratios of IC50 values of sodium trans-[tetrachlorobis(1H-indazole)ruthenate(III)] in a cell line sensitive to one of the other drugs and a cell line insensitive to the same drug were calculated.

HepG2 [5] = test: MTT cytotoxicity assay, HepG2 cell line; type: cell-based, human; conditions: for IC50: HepG2; for IC50 Ratio (HepG2/Hep3B): IC50 in HepG2 divided by IC50 in Hep3B
Method: as §1, §2

B1 = test: MTT cytotoxicity assay, B1 cell line; type: cell-based, human
Method: as §1, §2

Hep3B cells [6] = conditions: for increase in life span: versus control group (33 days)
Method: Separately, the activity of sodium trans-[tetrachlorobis(1H-indazole)ruthenate(III)] against Hep3B cells was evaluated in xenograft experiments using female SCID mice as compared to the standard therapy sorafenib. Sodium trans-[tetrachlorobis(1H-indazole)ruthenate(III)] was administered IV at 30 mg/kg once a week for two weeks. Sorafenib was administered P.O. at 25 mg/kg daily five times a week for two weeks.

hepatocellular carcinoma = conditions: late stage HCC patients with well preserved liver function; cited from earlier work
HCC3 = test: MTT cytotoxicity assay, HCC3 cell line; type: cell-based, human; conditions: for IC50: HCC3, MTT at 72 h; for IC50 Ratio (HCC3/B1): IC50 in HCC3 divided by IC50 in B1
Method: as §1, §2

HCC2 = test: MTT cytotoxicity assay, HCC2 cell line; type: cell-based, human; conditions: for IC50: HCC2, MTT; for IC50 Ratio (HCC2/HCC3): IC50 in HCC2 divided by IC50 in HCC3
Method: as §1, §2

Hep3B cells [7] = test: Cell cycle distribution, PI staining and FACS; type: cell-based, human; conditions: 24 hours of treatment, PI staining, FACS
PARP = PARP cleavage by Western blot; type: cell-based, human; conditions: 24 hours of drug treatment
Method: Treatment with sodium trans-[tetrachlorobis(1H-indazole)ruthenate(III)] led to typical morphological signs of programmed cell death like cell shrinkage, chromatin condensation and formation of apoptotic bodies. Apoptotic cell death induced by sodium trans-[tetrachlorobis(1H-indazole)ruthenate(III)] was further characterized by PARP cleavage examined by Western Blot Analyses. Specifically, after 24 hours of drug treatment, protein extracts were prepared and Western blot analyses performed. Rabbit Anti-PARP from Apoptosis Sampler kit (Cell Signaling Technology, Beverly, Mass.) (dilution 1:1000)[…]) was used. For loading control β-actin monoclonal mouse AC-15 (Sigma, USA, dilution: 1:1000) was used. All secondary peroxidase-labeled antibodies were purchased from Santa Cruz Biotechnology and used at working dilution of 1:10000.

Hep3B cells [8] = test: Mitochondrial membrane depolarization, JC-1 staining and FACS; type: cell-based, human
Hep3B cells [9] = test: Apoptosis induction, DAPI staining of nuclear morphology; type: cell-based, human; conditions: 24 hours of drug treatment
Method: To evaluate the mechanisms underlying the drug activity, apoptosis induction as well as impact on cell cycle distribution and proliferation of Hep3B cells were evaluated (FIG. 2). Specifically, the hepatoma cell line Hep3B was purchased from American Type Culture Collection (ATCC), Manassas, Va. All cells were grown in RPMI 1640 supplemented with 10% FCS. Cultures were regularly checked for Mycoplasma contamination. After 24 hours of drug treatment, cells were harvested, washed in PBS and cytospins were prepared. After fixation with a 1:1 methanol/acetone solution, slides were stained with 4′,6-diamidino-2-phenylindole (DAPI) containing antifade solution (Vector Laboratories, Inc., USA). Nuclear morphology of cells was examined using a Laica DMRXA fluorescence microscope (Laica Mikroskopie and System, Wetzlar, Germany) equipped with appropriate epifluorescence filters and a COHU charge-douples device camera. Duplicate slides were prepared for each cell type/treatment group and 300-500 cells were counted for each sample.
Treatment with sodium trans-[tetrachlorobis(1H-indazole)ruthenate(III)] led to typical morphological signs of programmed cell death like cell shrinkage, chromatin condensation and formation of apoptotic bodies. […]

[10] = test system: stress kinase P38 and extracellular signal-regulated kinase (ERK); test: Phosphorylation of P38 and ERK; type: cell-based, human; conditions: 24 hours of treatment
[11] = test system: colon cancer cell line HT29; conditions: Kapitza et al. 2005; cited from earlier work
[12] = test system: hepatocellular carcinoma cell lines; test: MTT cytotoxicity assay, mean over selected hepatocellular carcinoma cell lines; type: cell-based, human; conditions: mean over tested HCC cell lines, after 72 hours
Method: as §1

HCC1.2 = test: MTT cytotoxicity assay, HCC1.2 cell line; type: cell-based, human; conditions: 3 h drug incubation, MTT at 72 h
Method: as §1

Hep3B cells [13] = test: DNA synthesis rate by 3H-thymidine incorporation; type: cell-based, human
[14] = test system: colon cancer cell line SW480; conditions: Kapitza et al. 2005; cited from earlier work
[15] = Hep3B xenograft, female SCID mice

SMILES | IC50 (Hep3B [1]) [µg/mL] | IC50 (HepG2 [2]) [µg/mL] | IC50 Ratio (HepG2/Hep3B) (HepG2 [3]) | IC50 Ratio (HepG2/Hep3B) (HepG2 [5]) | mean survival (Hep3B cells [6]; [15]) [days] | increase in life span (Hep3B cells [6]; Hep3B xenograft) [fold] | IC50 Ratio (HCC3/B1) (HCC3) | IC50 (HCC2) [µM] | IC50 Ratio (HCC2/HCC3) (HCC2) | IC50 (HCC3) [µM] | also measured
O=c1[nH]cc(F)c(=O)[nH]1 [5-FU] | 227 (≈ 1750 µM) | 17.2 (≈ 132 µM) | >5.2 |  |  |  |  |  |  |  | 
N.N.[Cl][Pt][Cl] [Cisplatin, cisplatin] | 3.75 | 19.4 | >5.2 |  |  |  |  |  |  |  | 
COc1cccc2c1C(=O)c1c(O)c3c(c(O)c1C2=O)C[C@@](O)(C(=O)CO)C[C@@H]3O[C@H]1C[C@H](N)[C@H](O)[C@H](C)O1 [Doxorubicin, doxorubicin, reference compound] |  |  |  | >3.6 |  |  |  |  |  |  | IC50 (Hep3B [4]; Homo sapiens): 0.0693 µM; IC50 (HepG2 [5]; Homo sapiens): > 0.25 µM
CNC(=O)c1cc(Oc2ccc(NC(=O)Nc3ccc(Cl)c(C(F)(F)F)c3)cc2)ccn1 [Sorafenib, sorafenib, reference compound] |  |  |  |  | 60 | 1.9 | >12.5 |  |  |  | IC50 (B1; Homo sapiens): 0.8 µM; added lifespan (hepatocellular carcinoma): two; IC50 (HCC3; Homo sapiens): > 10 µM
O=C1[O][Pt]2([NH][C@@H]3CCCC[C@H]3[NH]2)[O]C1=O [Oxaliplatin, oxaliplatin, reference compound] |  |  |  |  |  |  |  | 4.05 | >9.9 | 0.41 | 
[Cl][Ru-]([Cl])([Cl])[Cl].[Na+].c1ccc2[nH]ncc2c1.c1ccc2[nH]ncc2c1 [sodium trans-[tetrachlorobis(1H-indazole)ruthenate(III)]] |  |  |  | 1.1 | 80 | 2.4 | 0.8 | 129 | 1.9 | 67.5 | cell cycle distribution (Hep3B cells [7]): increase of cells in G2/M phase; PARP cleavage (PARP): PARP cleavage induced; cells with mitochondrial membrane depolarization (Hep3B cells [8]): increase of cells with mitochondrial membrane depolarization; apoptosis induction (Hep3B cells [9]): significant apoptosis; IC50 (Hep3B [4]; MTT): 167 µM; phosphorylation of P38 and ERK [10]: strong phosphorylation; IC50 (B1): 83.4 µM; killing of tumor cells [11]: effective in killing tumor cells; tumor growth (Hep3B cells [6]; Hep3B xenograft, female SCID mice, IV 30 mg/kg once a week for two weeks): effectively suppressed the growth of tumor; tolerability (Hep3B cells [6]; female SCID mice, IV 30 mg/kg once a week for two weeks): well tolerated; IC50 [12]: 124 µM; IC50 (HepG2 [5]; MTT): 189 µM; IC50 (HCC1.2): 62.9 µM; DNA synthesis rate (Hep3B cells [13]): significantly reduce DNA synthesis rate; killing of tumor cells [14]: effective in killing tumor cells
